Reference: patent US20150175556A1, “DIHYDROPYRIMIDIN-2(1H)-ONES AND DIHYDROPYRIMIDIN-2(1H)-THIONES AS INHIBITORS OF SODIUM IODIDE SYMPORTER” (COMMISSARIAT A L'ENERGIE ATOMIQUE ET AUX ENERGIES …, priority 2012, published 2015)
Like-named read-outs stand apart in the source and are kept apart here.

Legend:
[1] = molecular target: T1, sodium iodide symporter (NIS), iodide uptake in FRTL5 cells (Rattus norvegicus, UniProt Q63008); test: Inhibition of iodide uptake in FRTL5 cells, non radioactive arsenic/cerium assay; format: cell-based; conditions: NaI 10 μM, 1 hour, 20°C, read-out: IC50 (μM), inhibitory activity against iodide uptake in FRTL5 cells
T1 construct: endogenous in cells; host or cells: FRTL5 (rat thyroid-derived cells)
T1 sequence (Q63008 1-618): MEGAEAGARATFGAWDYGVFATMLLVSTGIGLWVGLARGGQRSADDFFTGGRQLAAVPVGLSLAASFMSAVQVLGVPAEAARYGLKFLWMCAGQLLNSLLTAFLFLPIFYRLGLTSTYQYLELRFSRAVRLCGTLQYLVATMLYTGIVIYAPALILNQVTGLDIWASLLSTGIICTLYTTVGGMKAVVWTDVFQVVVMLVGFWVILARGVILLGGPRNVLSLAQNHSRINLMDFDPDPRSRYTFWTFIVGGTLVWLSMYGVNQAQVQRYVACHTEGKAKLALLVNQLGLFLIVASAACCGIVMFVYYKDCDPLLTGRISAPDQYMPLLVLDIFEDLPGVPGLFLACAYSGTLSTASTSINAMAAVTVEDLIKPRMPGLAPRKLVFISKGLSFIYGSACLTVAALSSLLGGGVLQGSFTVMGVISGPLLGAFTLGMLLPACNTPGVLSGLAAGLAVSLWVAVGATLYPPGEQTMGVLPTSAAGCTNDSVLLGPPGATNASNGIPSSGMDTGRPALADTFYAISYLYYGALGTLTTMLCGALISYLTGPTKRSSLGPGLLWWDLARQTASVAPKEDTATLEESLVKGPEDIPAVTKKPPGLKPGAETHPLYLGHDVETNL
Method: Some of the synthesized compounds were evaluated for their ability to inhibit iodide entrapment in FRTL5 cells. The IC50 values were measured in at least […] independent experiments.
The biological activity of each compound was determined in FRTL5 cells, using a non radioactive arsenic/cerium assay as described in F. Waltz et al., Anal. Biochem., 2012, 396, 91-95. Compound potency was expressed as IC50, the concentration of compound necessary to achieve 50% inhibition of iodide uptake. Briefly, to FRTL5 cells at 70-90% confluence was added compound (200 μM, 10 μM, 0.5 μM, 25 nM, 1.2 nM, 60 pM, […], and 0.15 pM final), followed by NaI (10 μM final). After 1 hour incubation at 20±1° C., supernatant was removed and the cells were immediately assayed for iodide content using the modified As/Ce Sandell-Kolthoff reaction. NaClO4 was tested in each microplate as assay controls. The IC50 values of all compounds were measured least thrice independently.
Stock solutions of tested compounds were prepared in DMSO (20 mM) and that of NaClO4 in water (20 mM). These stock solutions were stored at 4° C. for up to 2 months. Sample dilutions: the day of the assay, a daughter plate (clear flat-bottomed 96-well polystyrene microplates, Costar 9017) was prepared from 20 mM stock solutions. NaClO4 (column 2) and DHPM samples (columns 4 to 11) were diluted at 10× the final concentration in uptake buffer.
FRTL5 cells were cultured as described in F. S. Ambesi-Impiombato et al., Proc. Natl. Acad. Sci. USA, 1980, 77, 3455-3459. Briefly, FRTL5 cells were cultured in Coon's modified F12 medium supplemented with 5% heat-inactivated fetal bovine serum (Invitrogen), 2 mM L-glutamine, 100 U/mL penicillin, 0.1 mg/mL streptomycin, 10 μg/mL insulin, 10 nM hydrocortisone, 10 ng/mL Gly-His-Lys acetate, 1 mU/mL TSH, 5 μg/mL transferrin at 37° C. and 5% CO2. For iodide uptake assays, 200 μL of FRTL5 cells with density of 250,000 cells/mL were dispensed in each well of clear flat-bottomed 96-well polystyrene microplates (Costar 3628) using the Multidrop 384 (ThermoFisher Scientific), and further cultured until confluence reached 80-90% (3-4 days).
The culture medium of FRTL5 monolayer cells at 80-90% confluence was replaced by uptake buffer (20° C.) via continuous aspiration/dispense cycle (600 μL) using a 96-needle head plate washer PW 384 (Tecan). The 96-needle head was set to a vertical position such that 80 μL of fresh uptake buffer remained in each well at the end of the cycle. The samples (10 μL each) from the daughter plate were transferred all at once to the assay plate using the 96-tip head pipettor Liquidator 96 (Mettler Toledo). Immediately after, 10 μL of a NaI solution at 100 μM was added to each well of the assay plate using the Liquidator 96. The assay plate was left to stand in the dark at 20±1° C. for 60 min. The assay plate was then washed with cold (4° C.) uptake buffer using the PW 384 plate washer and residual supernatant was immediately discarded by inverting the assay plate on absorbent paper.
Sodium iodide standards (S1 to S7) and water (S0) were distributed in duplicate (100 μL each) in the first and last column of the assay plate. Water (100 μL) was added to the columns with the Multidrop 384. 100 μL of the ammonium cerium (IV) sulfate solution (10.5 mM) was distributed into the columns, followed by 100 μL of the sodium arsenite (III) solution (24 mM) using the Multidrop 384. The assay plate was left to stand at 20±1° C. for 30 min. The absorbance at 420 nm (Abs420) was immediately recorded on a SpectraMax Plus 384 (Molecular Devices). A calibration curve was prepared for each plate by plotting the logarithmic conversion of the means of Abs420 (n=2) vs iodide standard concentrations (S0 to S7). The iodide concentrations in the samples were determined after linear regression of the calibration curve.

[2] = Table 1, variations at R1, averaged from three or four independent experiments
[3] = Table 5, variations at Y, R1, R3, R4, R5, averaged from two to four independent experiments
[4] = Table 3, variations at R2, averaged from three or four independent experiments

Row | Compound | IC50 [1, 2] [µM] | melting point [°C] | also measured
1 | COc1ccc(COC(=O)C2=C(C)NC(=O)NC2c2ccc(F)cc2)cc1 (centres unmarked) [Compound 25, 4-Methoxybenzyl 4-(4-fluorophenyl)-6-methyl-2-oxo-1,2,3,4-tetrahydropyrimidine-5-carboxylate] | 0.15 | 172 to 175 | –
2 | COc1ccc(COC(=O)C2=C(C)NC(=O)NC2c2ccoc2)cc1 (centres unmarked) [Compound 28, 4-Methoxybenzyl 4-(furan-3-yl)-6-methyl-2-oxo-1,2,3,4-tetrahydropyrimidine-5-carboxylate] | 0.02 | 157 to 159 | –
3 | COc1ccc(COC(=O)C2=C(C)NC(=O)NC2c2ccccc2F)cc1 (centres unmarked) [Compound 23, 4-Methoxybenzyl 4-(2-fluorophenyl)-6-methyl-2-oxo-1,2,3,4-tetrahydropyrimidine-5-carboxylate] | 0.065 | 181 to 183 | –
4 | COc1ccc(COC(=O)C2=C(CNC(=O)c3ccccc3)NC(=O)NC2c2ccccc2)cc1 (centres unmarked) [Compound 47, 4-Methoxybenzyl 2-oxo-6-(benzamidomethyl)-4-phenyl-1,2,3,4-tetrahydropyrimidine-5-carboxylate] | – | 213 to 216 | IC50 [1, 4]: 1.2 µM
5 | COc1ccc(COC(=O)C2=C(C)NC(=O)NC2c2ccsc2)cc1 (centres unmarked) [Compound 31, 4-Methoxybenzyl 6-methyl-2-oxo-4-(thiophen-3-yl)-1,2,3,4-tetrahydropyrimidine-5-carboxylate] | 0.04 | 156 to 158 | –
6 | CC1=C(C(=O)OCc2ccc3c(c2)OCO3)C(c2ccco2)NC(=O)N1 (centres unmarked) [Compound 59, benzo[d][1,3]dioxol-5-ylmethyl 4-(furan-2-yl)-6-methyl-2-oxo-1,2,3,4-tetrahydropyrimidine-5-carboxylate] | – | 169 to 171 | IC50 [1, 3]: 0.004 µM
7 | CCC1=C(C(=O)OCc2ccc(OC)cc2)C(c2ccccc2)NC(=O)N1 (centres unmarked) [Compound 40, 4-Methoxybenzyl 6-ethyl-2-oxo-4-phenyl-1,2,3,4-tetrahydropyrimidine-5-carboxylate] | – | 62 to 65 | IC50 [1, 4]: 0.07 µM
8 | COc1ccc(COC(=O)C2=C(C)NC(=O)NC2c2cccc(F)c2)cc1 (centres unmarked) [Compound 24, 4-Methoxybenzyl 4-(3-fluorophenyl)-6-methyl-2-oxo-1,2,3,4-tetrahydropyrimidine-5-carboxylate] | 0.075 | 173 to 174 | –
9 | CC1=C(C(=O)OCc2ccc3c(c2)OCO3)C(c2ccoc2)NC(=O)N1 (centres unmarked) [Compound 62, Benzo[d][1,3]dioxol-5-ylmethyl 4-(furan-3-yl)-6-methyl-2-oxo-1,2,3,4-tetrahydropyrimidine-5-carboxylate] | – | 172 to 173 | IC50 [1, 3]: 0.037 µM
10 | COc1ccc(COC(=O)C2=C(C)NC(=O)NC2c2cccc(Cl)c2)cc1 (centres unmarked) [Compound 22, 4-Methoxybenzyl 4-(3-chlorophenyl)-6-methyl-2-oxo-1,2,3,4-tetrahydropyrimidine-5-carboxylate] | 0.1 | 180 to 181 | –
11 | COc1ccc(COC(=O)C2=C(C)NC(=S)NC2c2ccccc2)cc1 (centres unmarked) [Compound 52, 4-methoxybenzyl 6-methyl-4-phenyl-2-thioxo-1,2,3,4-tetrahydropyrimidine-5-carboxylate] | – | 174 to 175 | IC50 ([1]; Table 4, variations at X, R3, R4, averaged from three or four independent experiments): 0.095 µM

Second part, led by results:

Row | IC50 [1, 2] [µM] | melting point [°C] | Compound | also measured
12 | 0.75 | 158 to 160 | COc1ccc(COC(=O)C2=C(C)NC(=O)NC2C2CC2)cc1 (centres unmarked) [Compound 26, 4-Methoxybenzyl 4-cyclopropyl-6-methyl-2-oxo-1,2,3,4-tetrahydropyrimidine-5-carboxylate] | –
13 | – | 165 to 166 | COc1cccc(COC(=O)C2=C(C)NC(=O)NC2c2ccco2)c1 (centres unmarked) [Compound 55, 3-methoxybenzyl 4-(furan-2-yl)-6-methyl-2-oxo-1,2,3,4-tetrahydropyrimidine-5-carboxylate] | IC50 [1, 3]: 0.00057 µM
14 | – | 112 to 113 | COc1ccc(COC(=O)C2=C(C)N(C)C(=O)NC2c2ccco2)cc1 (centres unmarked) [Compound 53, 4-Methoxybenzyl 4-(furan-2-yl)-1,6-dimethyl-2-oxo-1,2,3,4-tetrahydropyrimidine-5-carboxylate] | IC50 [1, 3]: 0.09 µM
15 | 0.05 | 152 to 154 | COc1ccc(COC(=O)C2=C(C)NC(=O)NC2c2cccs2)cc1 (centres unmarked) [Compound 30, 4-Methoxybenzyl 4-(thiophen-2-yl)-6-methyl-2-oxo-1,2,3,4-tetrahydropyrimidine-5-carboxylate] | –
16 | 0.0032 | 158 to 159 | COc1ccc(COC(=O)C2=C(C)NC(=O)NC2c2ccco2)cc1 (centres unmarked) [Compound 27, 4-methoxybenzyl 4-(furan-2-yl)-6-methyl-2-oxo-1,2,3,4-tetrahydropyrimidine-5-carboxylate] | –
17 | – | 140 to 142 | COc1ccc(COC(=O)C2=C(Cc3ccccc3)NC(=O)NC2c2ccccc2)cc1 (centres unmarked) [Compound 45, 4-Methoxybenzyl 6-benzyl-2-oxo-4-phenyl-1,2,3,4-tetrahydropyrimidine-5-carboxylate] | IC50 [1, 4]: 0.25 µM
18 | – | 216 to 217 | CC1=C(C(=O)OCc2ccc(Cl)cc2)C(c2ccccc2)NC(=O)N1 (centres unmarked) [Compound 34, 4-Chlorobenzyl 6-methyl-2-oxo-4-phenyl-1,2,3,4-tetrahydropyrimidine-5-carboxylate] | IC50 ([1]; Table 2, variations at R5, averaged from three or four independent experiments): 0.3 µM
19 | – | 235 to 237 | CC1=C(C(=O)NCc2ccc3c(c2)OCO3)C(c2ccccc2)NC(=O)N1 (centres unmarked) [Compound 63, N-(benzo[d][1,3]dioxol-5-ylmethyl) 6-methyl-2-oxo-4-phenyl-1,2,3,4-tetrahydropyrimidine-5-carboxamide] | IC50 [1, 3]: 0.078 µM
